# Experimental data taken from US20120029187A1, “HALOALKYLSULFONANILIDE DERIVATIVE” (Nissan Chemical Industries, Ltd., priority 2009, published 2012).
# How the values were obtained:
# Assay type in all cases: in vivo
# [1] = system: bulrush; test: Test Example 2: herbicidal effects during the vegetation period under submerged conditions; details: treatment during the vegetation period under submerged conditions; dose 2.52 g/a
# Method in brief: (§1)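 Barnyardgrass, bulrush and ducksalad were co-sown in alluvial soil flooded to 4 cm and grown in a greenhouse at 25 to 30° C. At the 1- or 2-leaf stage, water-diluted emulsifiable concentrates went onto the water surface at set doses (g/a). Herbicidal effect was scored three weeks later on a graded scale.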
# [2] = system: ducksalad; test: as above; details: treatment during the vegetation period under submerged conditions; dose 2.52 g/a
# Method in brief: as §1
# [3] = system: barnyardgrass; test: as above; details: treatment during the vegetation period under submerged conditions; dose 2.52 g/a
# Method in brief: as §1
# [4] = system: bulrush; test: Test Example 1: herbicidal effects in preemergence treatment under submerged conditions; details: dose 2.52 g/a
# Method in brief: (§2)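 Submerged conditions, 4 cm water over alluvial soil. Weeds sown and 2.5-leaf rice transplanted; compound applied preemergence to water surface, doses in g per are. Greenhouse, 25 to 30° C., three weeks, then 0–5 mortality rating.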
# [5] = system: ducksalad; test: as above; details: dose 2.52 g/a
# Method in brief: as §2
# [6] = system: barnyardgrass; test: as above; details: dose 2.52 g/a
# Method in brief: as §2
# [7] = system: large crabgrass; test: Test Example 3: herbicidal effects in soil treatment; details: dose 6.3 g/a
# Method in brief: (§3)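 Seeds were sown in sterilized diluvial soil and covered with about 1.5 cm of soil. Compounds, formulated as emulsifiable concentrates and diluted with water, were sprayed evenly over the soil surface at set doses in g/a. Herbicidal effect was scored on a rating scale three weeks later.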
# [8] = system: redroot pigweed; test: as above; details: dose 6.3 g/a
# Method in brief: as §3
# [9] = system: giant foxtail; test: as above; details: dose 6.3 g/a
# Method in brief: as §3
# [10] = system: wild oat; test: as above; details: dose 6.3 g/a
# Method in brief: as §3
# [11] = system: velvetleaf; test: as above; details: dose 6.3 g/a
# Method in brief: as §3
# [12] = system: common lambsquater; test: as above; details: dose 6.3 g/a
# Method in brief: as §3
# [13] = system: Italian ryegrass; test: as above; details: dose 6.3 g/a
# Method in brief: as §3
# [14] = system: barnyardgrass; test: as above; details: dose 6.3 g/a
# Method in brief: as §3
# [15] = system: water foxtail; test: as above; details: dose 6.3 g/a
# Method in brief: as §3
# [16] = system: common ragweed; test: as above; details: dose 6.3 g/a
# Method in brief: as §3
# [17] = system: posumbu knotweed; test: as above; details: dose 6.3 g/a
# Method in brief: as §3
# [18] = system: common chickweed; test: as above; details: dose 6.3 g/a
# Method in brief: as §3
# [19] = system: large crabgrass; test: Test Example 4: herbicidal effect in foliage treatment; details: dose 6.3 g/a, three weeks after application
# Method in brief: (§4)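 Sowing in sterilized diluvial soil, ~1.5 cm cover; growth 14 d, 25–30° C greenhouse; foliar spray of water-diluted EC at predetermined g/a; scoring 3 wk later on graded scale.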
# [20] = system: redroot pigweed; test: as above; details: dose 6.3 g/a, three weeks after application
# Method in brief: as §4
# [21] = system: giant foxtail; test: as above; details: dose 6.3 g/a, three weeks after application
# Method in brief: as §4
# [22] = system: wild oat; test: as above; details: dose 6.3 g/a, three weeks after application
# Method in brief: as §4
# [23] = system: velvetleaf; test: as above; details: dose 6.3 g/a, three weeks after application
# Method in brief: as §4
# [24] = system: common lambsquater; test: as above; details: dose 6.3 g/a, three weeks after application
# Method in brief: as §4
# [25] = system: Italian ryegrass; test: as above; details: dose 6.3 g/a, three weeks after application
# Method in brief: as §4
# [26] = system: barnyardgrass; test: as above; details: dose 6.3 g/a, three weeks after application
# Method in brief: as §4
# [27] = system: water foxtail; test: as above; details: dose 6.3 g/a, three weeks after application
# Method in brief: as §4
# [28] = system: common ragweed; test: as above; details: dose 6.3 g/a, three weeks after application
# Method in brief: as §4
# [29] = system: posumbu knotweed; test: as above; details: dose 6.3 g/a, three weeks after application
# Method in brief: as §4
# [30] = system: beadstraw; test: as above; details: dose 6.3 g/a, three weeks after application
# Method in brief: as §4
# [31] = system: common chickweed; test: as above; details: dose 6.3 g/a, three weeks after application
# Method in brief: as §4
SMILES,"B: bulrush, herbicidal effect (evaluation scale 0-5) [1]","C: ducksalad, herbicidal effect (evaluation scale 0-5) [2]","A: barnyardgrass, herbicidal effect (evaluation scale 0-5) [3]","B: bulrush, herbicidal effect (evaluation scale 0-5) [4]","C: ducksalad, herbicidal effect (evaluation scale 0-5) [5]","A: barnyardgrass, herbicidal effect (evaluation scale 0-5) [6]","D: large crabgrass, herbicidal effect (evaluation scale 0-5) [7]","K: redroot pigweed, herbicidal effect (evaluation scale 0-5) [8]","E: giant foxtail, herbicidal effect (evaluation scale 0-5) [9]","F: wild oat, herbicidal effect (evaluation scale 0-5) [10]","I: velvetleaf, herbicidal effect (evaluation scale 0-5) [11]","L: common lambsquater, herbicidal effect (evaluation scale 0-5) [12]","H: Italian ryegrass, herbicidal effect (evaluation scale 0-5) [13]","A: barnyardgrass, herbicidal effect (evaluation scale 0-5) [14]","G: water foxtail, herbicidal effect (evaluation scale 0-5) [15]","J: common ragweed, herbicidal effect (evaluation scale 0-5) [16]","M: posumbu knotweed, herbicidal effect (evaluation scale 0-5) [17]","N: common chickweed, herbicidal effect (evaluation scale 0-5) [18]","D: large crabgrass, herbicidal effect [19]","K: redroot pigweed, herbicidal effect [20]",further results
"CC1OCCN(Cc2ccccc2NS(=O)(=O)C(F)(F)F)C1=O (centres unmarked) [Compound I-4, 2-methyl-4-(2-trifluoromethanesulfonylaminobenzyl)-1,4-oxazinan-3-one]",5 (mortality of 90% or above (nearly complete death)),5 (mortality of 90% or above (nearly complete death)),5 (mortality of 90% or above (nearly complete death)),5 (mortality of 90% or above (nearly complete death)),5 (mortality of 90% or above (nearly complete death)),5 (mortality of 90% or above (nearly complete death)),5 (mortality of 90% or above (nearly complete death)),4 (mortality of at least 70% and less than 90%),3 (mortality of at least 40% and less than 70%),0 (mortality of less than 5% (almost ineffective)),4 (mortality of at least 70% and less than 90%),5 (mortality of 90% or above (nearly complete death)),3 (mortality of at least 40% and less than 70%),4 (mortality of at least 70% and less than 90%),5 (mortality of 90% or above (nearly complete death)),5 (mortality of 90% or above (nearly complete death)),4 (mortality of at least 70% and less than 90%),5 (mortality of 90% or above (nearly complete death)),5 (mortality of 90% or above (nearly complete death)),3 (mortality of at least 40% and less than 70%),"E: giant foxtail, herbicidal effect [21]: 4 (mortality of at least 70% and less than 90%); F: wild oat, herbicidal effect [22]: 0 (mortality of less than 5% (almost ineffective)); I: velvetleaf, herbicidal effect [23]: 5 (mortality of 90% or above (nearly complete death)); L: common lambsquater, herbicidal effect [24]: 4 (mortality of at least 70% and less than 90%); H: Italian ryegrass, herbicidal effect [25]: 2 (mortality of at least 20% and less than 40%); A: barnyardgrass, herbicidal effect [26]: 5 (mortality of 90% or above (nearly complete death)); G: water foxtail, herbicidal effect [27]: 5 (mortality of 90% or above (nearly complete death)); J: common ragweed, herbicidal effect [28]: 4 (mortality of at least 70% and less than 90%); M: posumbu knotweed, herbicidal effect [29]: 3 (mortality of at least 40% and less than 70%); O: beadstraw, herbicidal effect [30]: 4 (mortality of at least 70% and less than 90%); N: common chickweed, herbicidal effect [31]: 4 (mortality of at least 70% and less than 90%)"
"O=C1COCCN1Cc1ccccc1NS(=O)(=O)C(F)(F)F [Compound I-1, 4-(2-trifluoromethanesulfonylaminobenzyl)-1,4-oxazinan-3-one]",5 (mortality of 90% or above (nearly complete death)),5 (mortality of 90% or above (nearly complete death)),5 (mortality of 90% or above (nearly complete death)),5 (mortality of 90% or above (nearly complete death)),5 (mortality of 90% or above (nearly complete death)),5 (mortality of 90% or above (nearly complete death)),5 (mortality of 90% or above (nearly complete death)),5 (mortality of 90% or above (nearly complete death)),5 (mortality of 90% or above (nearly complete death)),4 (mortality of at least 70% and less than 90%),5 (mortality of 90% or above (nearly complete death)),5 (mortality of 90% or above (nearly complete death)),5 (mortality of 90% or above (nearly complete death)),5 (mortality of 90% or above (nearly complete death)),5 (mortality of 90% or above (nearly complete death)),4 (mortality of at least 70% and less than 90%),5 (mortality of 90% or above (nearly complete death)),5 (mortality of 90% or above (nearly complete death)),5 (mortality of 90% or above (nearly complete death)),3 (mortality of at least 40% and less than 70%),"E: giant foxtail, herbicidal effect [21]: 5 (mortality of 90% or above (nearly complete death)); F: wild oat, herbicidal effect [22]: 3 (mortality of at least 40% and less than 70%); I: velvetleaf, herbicidal effect [23]: 5 (mortality of 90% or above (nearly complete death)); L: common lambsquater, herbicidal effect [24]: 5 (mortality of 90% or above (nearly complete death)); H: Italian ryegrass, herbicidal effect [25]: 5 (mortality of 90% or above (nearly complete death)); A: barnyardgrass, herbicidal effect [26]: 5 (mortality of 90% or above (nearly complete death)); G: water foxtail, herbicidal effect [27]: 5 (mortality of 90% or above (nearly complete death)); J: common ragweed, herbicidal effect [28]: 4 (mortality of at least 70% and less than 90%); M: posumbu knotweed, herbicidal effect [29]: 5 (mortality of 90% or above (nearly complete death)); O: beadstraw, herbicidal effect [30]: 5 (mortality of 90% or above (nearly complete death)); N: common chickweed, herbicidal effect [31]: 4 (mortality of at least 70% and less than 90%)"
